Data: US10307463B2 (priority 2003, dated 2019)

What was measured:
[1] = system: gross behavioral and cardiovascular effects; settings: rat, in vivo
in vivo [2] = settings: dog
GI transit = settings: rat, in vivo
dogs = settings: dog, in vivo
[3] = system: respiratory minute volume responses to CO2; settings: rat, in vivo
rats = settings: rat, in vivo
in vivo [4] = settings: rat
[5] = pH 4

## CSCC[C@@H]1NC(=O)[C@H](CC(C)C)NC(=O)[C@H](CCCNC(=N)N)NC(=O)[C@H](CO)NC(=O)[C@@H]2CSSC[C@@H]3NC(=O)[C@H](CO)NC(=O)CNC(=O)[C@H]([C@@H](C)O)NC(=O)[C@H](CSSC[C@H](N)C(=O)N[C@@H](CCCCN)C(=O)NCC(=O)N[C@@H](CCCCN)C(=O)NCC(=O)N[C@@H](C)C(=O)N[C@@H](CCCCN)C(=O)N2)NC(=O)[C@H](CSSC[C@@H](C(N)=O)NC(=O)[C@H](CCCCN)NC(=O)CNC(=O)[C@H](CO)NC(=O)[C@H](CCCNC(=N)N)NC3=O)NC(=O)[C@H](CC(=O)O)NC(=O)[C@H](Cc2ccc(O)cc2)NC1=O [ziconotide]
[1]
  gross behavioral and cardiovascular effects: well tolerated
In vivo [2]
  level at 672 h: < 4 ng/mL
GI transit
  GI transit: does not itself affect GI tract motility
dogs
  body weight, food intake or clinical pathology parameters: no treatment-related changes
  granuloma formation at the catheter tip: no granuloma formation
  mean plasma drug level relative to human: ~10 fold
  moribund euthanasia due to CNS effects (tremors, shaking-behavior, ataxia): 4/16
  target organ toxicity at termination: nor was any target organ toxicity identified
[3]
  respiratory depression, subacute administration: did not induce respiratory depression
  respiratory minute volume responses to CO2 / acute respiratory depression: did not depress
rats
  body weight, food intake or clinical pathology parameters: no treatment-related changes
  mean plasma drug level relative to human: approximately 3 fold
  target organ toxicity at termination: nor was any target organ toxicity identified
In vivo [4]
  level at 672 h: < 4 ng/mL
[5]
  stability in solution: stable at 45 °C for weeks
